Laboratory results from BindingDB's records for patent US20240287079 (Japan Tobacco, 2024).

Each compound was assayed against NACHT, LRR and PYD domains-containing protein 3 (Homo sapiens, UniProt Q96P20) (assay: Evaluation of NLRP3 Inflammasome Inhibitory Activity Assay).
NACHT, LRR and PYD domains-containing protein 3, sequence (Q96P20 whole entry, the tested form may be a part): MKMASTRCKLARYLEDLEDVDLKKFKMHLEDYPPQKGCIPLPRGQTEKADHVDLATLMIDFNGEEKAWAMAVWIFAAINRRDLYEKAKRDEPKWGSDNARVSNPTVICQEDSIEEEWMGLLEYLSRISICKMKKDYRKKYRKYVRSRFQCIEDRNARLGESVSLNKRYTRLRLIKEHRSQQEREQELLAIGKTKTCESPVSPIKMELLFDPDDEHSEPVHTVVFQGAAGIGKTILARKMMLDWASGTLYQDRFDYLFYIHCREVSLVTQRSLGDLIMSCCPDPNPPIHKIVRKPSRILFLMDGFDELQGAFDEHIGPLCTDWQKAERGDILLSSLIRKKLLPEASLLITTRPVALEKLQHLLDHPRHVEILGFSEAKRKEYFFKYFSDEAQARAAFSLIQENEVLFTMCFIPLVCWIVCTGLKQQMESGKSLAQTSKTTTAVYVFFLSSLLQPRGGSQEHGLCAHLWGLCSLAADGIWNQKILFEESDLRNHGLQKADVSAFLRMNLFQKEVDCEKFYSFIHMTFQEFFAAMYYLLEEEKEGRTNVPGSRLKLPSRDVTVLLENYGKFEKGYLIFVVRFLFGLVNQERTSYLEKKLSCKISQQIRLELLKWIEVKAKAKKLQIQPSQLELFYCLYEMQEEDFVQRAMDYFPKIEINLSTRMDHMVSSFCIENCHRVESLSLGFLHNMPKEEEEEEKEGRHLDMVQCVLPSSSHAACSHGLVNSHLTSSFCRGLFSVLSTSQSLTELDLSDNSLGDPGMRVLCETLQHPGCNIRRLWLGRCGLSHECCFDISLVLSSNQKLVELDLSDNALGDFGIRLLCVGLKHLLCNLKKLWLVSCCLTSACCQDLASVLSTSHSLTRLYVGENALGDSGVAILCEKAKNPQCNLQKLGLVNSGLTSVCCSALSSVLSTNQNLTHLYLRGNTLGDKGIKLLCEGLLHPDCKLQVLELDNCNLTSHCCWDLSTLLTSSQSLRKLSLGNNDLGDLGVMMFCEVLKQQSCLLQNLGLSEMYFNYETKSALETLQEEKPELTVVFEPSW
Description: The NLRP3 inflammasome inhibitory activity of test compounds were evaluated on the basis of the inhibitory activity of the IL-1β production in THP1-Null cells (Product Number: thp-null, InvivoGen). […] The supernatant of the culture was removed, and thereto was added media for assay (25 μL/well) containing 1 μg/mL Lipopolysaccharides (Product Number: L2654, Sigma-Aldrich (registered trademark)). […] The supernatant of the culture was removed. […] A solution containing a test compound (20 μL/well) was added to test compound-setting wells. […] The supernatant of the culture was cryonically stored (set at −20° C.) until measurement of IL-1β.
For `COC1(C)CN(c2nc3nn(-c4c(C)cc(Br)cc4C)cc3c(=O)[nH]2)C1` [US20240287079, Example 203], the IC50 was 27 nM.
Work on `Cc1cc(Br)cc(C)c1-n1cc2c(=O)[nH]c(N3CC4(COC4)C3)nc2n1` [US20240287079, Example 204] yielded an IC50 of 28 nM.
Compound `COC1(C)CN(c2nc3nn(-c4c(C)cc(Br)cc4C)cc3c(=O)n2C)C1` [US20240287079, Example 212] has an IC50 of 130 nM.
`Cc1cc(Br)cc(C)c1-n1cc2c(=O)[nH]c(N3CCOC[C@H]3C)nc2n1` [US20240287079, Example 213] was tested, and the IC50 was 6.8 nM.
With `Cc1cc(Br)cc(C)c1-n1cc2c(=O)[nH]c(N3CCO[C@@H](C)C3)nc2n1` [US20240287079, Example 214] the IC50 was 19 nM.
With `Cc1cc(Br)cc(C)c1-n1cc2c(=O)[nH]c(N3CCO[C@H](C)C3)nc2n1` [US20240287079, Example 215] the IC50 was 17 nM.
`COC1COCCN(c2nc3nn(-c4c(C)cc(Br)cc4C)cc3c(=O)[nH]2)C1` (stereo unspecified) [US20240287079, Example 216] was tested, and the IC50 was 12 nM.
Compound `Cc1cc(Br)cc(C)c1-n1cc2c(=O)[nH]c(N3CCOC[C@@H]3C)nc2n1` [US20240287079, Example 223] has an IC50 of 160 nM.
`Cc1cc(Br)cc(C)c1-n1cc2c(=O)[nH]c(N3C[C@@H](C)O[C@@H](C)C3)nc2n1` [US20240287079, Example 224] showed an IC50 of 80 nM.
`Cc1cc(Br)cc(C)c1-n1cc2c(=O)[nH]c(N3CCOC4(CC4)C3)nc2n1` [US20240287079, Example 225] showed an IC50 of 19 nM.
`Cc1cc(Br)cc(C)c1-n1cc2c(=O)[nH]c(N3C4CCC3CC(F)(F)C4)nc2n1` [US20240287079, Example 238] showed an IC50 of 110 nM.
For `Cc1cc(Br)cc(C)c1-n1cc2c(=O)[nH]c(N3CC4CCC(C3)C4(F)F)nc2n1` [US20240287079, Example 239], the IC50 was 11 nM.
`Cc1cc(Br)cc(C)c1-n1cc2c(=O)[nH]c(N3CCC4CC43)nc2n1` (stereo unspecified) [US20240287079, Example 240] was tested, and the IC50 was 7.1 nM.
`CNc1nc2nn(-c3c(C)cc(Br)cc3C)cc2c(=O)n1C` [US20240287079, Example 247] was tested, and the IC50 was 260 nM.
Compound `CCC1COCCN1c1nc2nn(-c3c(C)cc(Br)cc3C)cc2c(=O)[nH]1` (stereo unspecified) [US20240287079, Example 248] has an IC50 of 30 nM.
`Cc1cc(Br)cc(C)c1-n1cc2c(=O)[nH]c(N3CCOC4(COC4)C3)nc2n1` [US20240287079, Example 264] showed an IC50 of 32 nM.
